Experiments:
[1] = target: T1, protein-protein interaction between oligomeric amyloid-β and PrP^c (Homo sapiens, UniProt P04156); type: binding
[2] = target: T1, protein-protein interaction between oligomeric amyloid-β and PrP^c; settings: cited from earlier work
[3] = test system: Experimental Autoimmune Encephalomyelitis (EAE); assay: Mouse Experimental Autoimmune Encephalomyelitis (EAE) model, clinical score; type: in vivo, C57B1.6 mice; settings: 100 ng/dose i.v. every other day from day 18

## dextran
[1]
  competition for the protein-protein interaction (in words): failed to compete appreciably

## dextran sulphate sodium salt [DSSS]
[2]
  effective concentrations to compete with the protein-protein interaction (Aimi et al.): in the low μg/ml range
[1]
  Competable binding (%): 101 ± 2%
  Hill coefficient: 1.51 ± 0.06
  IC50: 0.62 ± 0.07 µg/mL
  competition for the protein-protein interaction (in words): competed for the protein-protein interaction between oligomeric amyloid-β and PrP^c in a concentration dependent manner

B1: HGF: Hepatocyte growth factor (HGF) recombinant mouse (R&D Systems) (protein, UniProt Q08048 33-495; Q08048 496-728, looked up)
Hepatocyte growth factor …: QKKRRNTLHEFKKSAKTTLTKEDPLLKIKTKKVNSADECANRCIRNRGFTFTCKAFVFDKSRKRCYWYPFNSMSSGVKKGFGHEFDLYENKDYIRNCIIGKGGSYKGTVSITKSGIKCQPWNSMIPHEHSFLPSSYRGKDLQENYCRNPRGEEGGPWCFTSNPEVRYEVCDIPQCSEVECMTCNGESYRGPMDHTESGKTCQRWDQQTPHRHKFLPERYPDKGFDDNYCRNPDGKPRPWCYTLDPDTPWEYCAIKTCAHSAVNETDVPMETTECIQGQGEGYRGTSNTIWNGIPCQRWDSQYPHKHDITPENFKCKDLRENYCRNPDGAESPWCFTTDPNIRVGYCSQIPKCDVSSGQDCYRGNGKNYMGNLSKTRSGLTCSMWDKNMEDLHRHIFWEPDASKLNKNYCRNPDDDAHGPWCYTGNPLIPWDYCPISRCEGDTTPTIVNLDHPVISCAKTKQLR
Hepatocyte growth factor beta …: VVNGIPTQTTVGWMVSLKYRNKHICGGSLIKESWVLTARQCFPARNKDLKDYEAWLGIHDVHERGEEKRKQILNISQLVYGPEGSDLVLLKLARPAILDNFVSTIDLPSYGCTIPEKTTCSIYGWGYTGLINADGLLRVAHLYIMGNEKCSQHHQGKVTLNESELCAGAEKIGSGPCEGDYGGPLICEQHKMRMVLGVIVPGRGCAIPNRPGIFVRVAYYAKWIHKVILTYKL
[3]
  mean EAE score vs vehicle: did not result in any significant difference

— US11534457B2, “Use of dextran sulfate” (priority 2017, dated 2022)
